From PubChem BioAssay (NCI)
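Results reflect a 48-hour exposure of cells in 96-well plates to compound at five concentrations. At the TGI there is no net growth.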

Key:
Experiment in all cases: inhibition of tumour cell growth, NCI panel, 48 h
[1] = system: DU-145 prostate
[2] = system: SF-295 CNS
[3] = system: UACC-62 melanoma
[4] = system: PC-3 prostate
[5] = system: A549 NSCLC
[6] = system: NCI/ADR-RES ovarian
[7] = system: HL-60(TB) leukemia
[8] = system: EKVX NSCLC
[9] = system: HCT-15 colon
[10] = system: SF-268 CNS
[11] = system: KM12 colon
[12] = system: MDA-N
[13] = system: HCC-2998 colon
[14] = system: UO-31 renal
[15] = system: SF-539 CNS
[16] = system: SK-MEL-28 melanoma
[17] = system: CCRF-CEM leukemia
[18] = system: HOP-92 NSCLC
[19] = system: RXF 393 renal
[20] = system: NCI-H460 lung
[21] = system: A498 renal
[22] = system: TK-10 renal
[23] = system: OVCAR-3 ovarian
[24] = system: HS 578T breast
[25] = system: MCF7 breast
[26] = system: SNB-75 CNS
[27] = system: NCI-H522 lung
[28] = system: RPMI-8226 leukemia
[29] = system: U251 CNS
[30] = system: M14 melanoma
[31] = system: CAKI-1 renal
[32] = system: T-47D breast
[33] = system: HCT-116 colon
[34] = system: OVCAR-4 ovarian
[35] = system: SK-MEL-5 melanoma
[36] = system: SR leukemia
[37] = system: NCI-H226 lung
[38] = system: K-562 leukemia
[39] = system: OVCAR-8 ovarian
[40] = system: ACHN renal
[41] = system: OVCAR-5 ovarian
[42] = system: LOX IMVI melanoma
[43] = system: 786-0 renal
[44] = system: IGROV1 ovarian
[45] = system: MOLT-4 leukemia
[46] = system: SW-620 colon
[47] = system: BT-549 breast
[48] = system: SNB-19 CNS
[49] = system: HOP-62 NSCLC
[50] = system: MDA-MB-231 breast
[51] = system: SK-MEL-2 melanoma
[52] = system: HT29 colon
[53] = system: SN12C renal
[54] = system: SK-OV-3 ovarian
[55] = system: MALME-3M melanoma
[56] = system: UACC-257 melanoma
[57] = system: COLO 205 colon
[58] = system: MDA-MB-435
[59] = system: NCI-H23 lung

CC(=O)O[C@H]1C(=O)[C@@]2(C)[C@H]([C@H](OC(=O)c3ccccc3)[C@]3(O)C[C@H](OC(=O)[C@H](O)[C@@H](NC(=O)c4ccc(N)cc4)c4ccccc4)C(C)=C1C3(C)C)[C@]1(OC(C)=O)CO[C@@H]1C[C@@H]2O
TGI [1]: 31.4 µM
TGI [2]: > 50 µM
TGI [3]: > 50 µM
TGI [4]: > 50 µM
TGI [5]: > 50 µM
TGI [6]: > 50 µM
TGI [7]: 0.318 µM
TGI [8]: > 50 µM
TGI [9]: > 50 µM
TGI [10]: > 50 µM
TGI [11]: > 50 µM
TGI [12]: < 0.005 µM
TGI [13]: 0.0545 µM
TGI [14]: > 50 µM
TGI [15]: 0.0309 µM
TGI [16]: > 50 µM
TGI [17]: > 23.7 µM
TGI [18]: > 50 µM
TGI [19]: > 50 µM
TGI [20]: > 50 µM
TGI [21]: > 50 µM
TGI [22]: > 50 µM
TGI [23]: 0.0224 µM
TGI [24]: 0.0126 µM
TGI [25]: > 50 µM
TGI [26]: > 50 µM
TGI [27]: > 50 µM
TGI [28]: < 0.005 µM
TGI [29]: > 50 µM
TGI [30]: > 50 µM
TGI [31]: > 50 µM
TGI [32]: > 50 µM
TGI [33]: > 50 µM
TGI [34]: > 50 µM
TGI [35]: > 50 µM
TGI [36]: > 41.9 µM
TGI [37]: 0.00862 µM
TGI [38]: 0.26 µM
TGI [39]: > 50 µM
TGI [40]: > 50 µM
TGI [41]: > 50 µM
TGI [42]: > 50 µM
TGI [43]: > 50 µM
TGI [44]: > 50 µM
TGI [45]: > 29.5 µM
TGI [46]: > 50 µM
TGI [47]: > 50 µM
TGI [48]: > 50 µM
TGI [49]: > 50 µM
TGI [50]: > 50 µM

O=c1[nH]c2cccc([N+](=O)[O-])c2c(=O)n1-c1ccc(Cl)cc1
TGI [1]: 41.1 µM
TGI [2]: 12.2 µM
TGI [3]: 23.1 µM
TGI [4]: 38.1 µM
TGI [5]: 36.3 µM
TGI [6]: 43.6 µM
TGI [7]: 53.3 µM
TGI [8]: 28 µM
TGI [9]: 30.2 µM
TGI [51]: 25.6 µM
TGI [10]: 30.4 µM
TGI [11]: 34.4 µM
TGI [52]: 26.1 µM
TGI [12]: 26.6 µM
TGI [53]: 33.9 µM
TGI [13]: 31.4 µM
TGI [15]: 26.2 µM
TGI [16]: 26.8 µM
TGI [54]: 28 µM
TGI [17]: 47.1 µM
TGI [18]: 47.9 µM
TGI [19]: 37.1 µM
TGI [20]: 25.8 µM
TGI [21]: 30.6 µM
TGI [22]: 39 µM
TGI [23]: 23.5 µM
TGI [24]: 42 µM
TGI [55]: 27.6 µM
TGI [25]: 25.5 µM
TGI [28]: 36.1 µM
TGI [56]: 29.6 µM
TGI [29]: 59.7 µM
TGI [30]: 29.2 µM
TGI [31]: 19.5 µM
TGI [57]: 16.6 µM
TGI [32]: 26.8 µM
TGI [33]: 61.7 µM
TGI [34]: 16.4 µM
TGI [35]: 24 µM
TGI [36]: 35.2 µM
TGI [37]: 30.1 µM
TGI [38]: 34.9 µM
TGI [39]: 29.4 µM
TGI [40]: 25.1 µM
TGI [41]: 36.5 µM
TGI [42]: 59.5 µM
TGI [43]: 55.9 µM
TGI [44]: 40.1 µM
TGI [58]: 25.5 µM
TGI [45]: 43.2 µM
TGI [46]: 27.1 µM
TGI [47]: 23.7 µM
TGI [48]: 45 µM
TGI [49]: 61 µM
TGI [59]: 42.1 µM
TGI [50]: 34.3 µM
